ChEMBL document CHEMBL3425492, “Dual high-resolution α-glucosidase and radical scavenging profiling combined with HPLC-HRMS-SPE-NMR for identification of minor and major constituents directly from the crude extract of Pueraria lobata” (J Nat Prod, 2015)
Active and inactive are the calls of the source. The rule behind the calls is not given here.

Assays:
[1] = Antioxidant activity of the compound assessed as inhibition of ABTS radicals after 20 mins by spectrophotometric analysis; assay type: physicochemical
Saccharomyces cerevisiae = assay: Inhibition of Saccharomyces cerevisiae alpha-glucosidase type 1 assessed as 4-nitrophenol cleavage product by high-resolution biochromatogram

inhibition (INH) [1] | Activity (Saccharomyces cerevisiae) | Structure (SMILES)
Not Active | – | O=c1c(-c2ccc(O)cc2)coc2cc(O)cc(O)c12 [GENISTEIN]
Not Active | – | COc1ccc(-c2coc3cc(O[C@@H]4O[C@H](CO)[C@@H](O)[C@H](O)[C@H]4O)cc(O)c3c2=O)cc1
Not Active | Active | O=c1c(-c2ccc(O)cc2)coc2c([C@@H]3O[C@H](CO)[C@@H](O)[C@H](O)[C@H]3O)c(O)ccc12 [PUERARIN]
Active | Active | O=c1c(-c2ccc(O)cc2)coc2cc(O)ccc12 [DAIDZEIN]
Not Active | – | COc1cc(-c2coc3cc(O[C@@H]4O[C@H](CO)[C@@H](O)[C@H](O)[C@H]4O)ccc3c2=O)ccc1O
Not Active | – | COc1ccc(-c2coc3cc(O)ccc3c2=O)cc1 [FORMONONETIN]
Not Active | – | COc1ccc(-c2coc3cc(O[C@@H]4O[C@H](COC(=O)CC(=O)O)[C@@H](O)[C@H](O)[C@H]4O)cc(O)c3c2=O)cc1
Not Active | Active | O=c1c(-c2ccc(O)cc2)coc2cc(O[C@@H]3O[C@H](CO)[C@@H](O)[C@H](O)[C@H]3O)cc(O)c12 [GENISTIN]
Not Active | – | COc1ccc(-c2coc3cc(O[C@@H]4O[C@H](COC(=O)CC(=O)O)[C@@H](O)[C@H](O)[C@H]4O)ccc3c2=O)cc1
Not Active | – | COc1cc(-c2coc3cc(O[C@@H]4O[C@H](COC(=O)CC(=O)O)[C@@H](O)[C@H](O)[C@H]4O)ccc3c2=O)ccc1O
Active | – | O=Cc1c(-c2ccc(O)cc2O)oc2cc(O)ccc12
Not Active | Active | O=C(O)CC(=O)OC[C@H]1O[C@@H](Oc2cc(O)c3c(=O)c(-c4ccc(O)cc4)coc3c2)[C@H](O)[C@@H](O)[C@@H]1O
Not Active | – | COc1ccc(-c2coc3cc(O[C@@H]4O[C@H](CO)[C@@H](O)[C@H](O)[C@H]4O)ccc3c2=O)cc1 [ONONIN]
Not Active | Active | O=c1c(-c2ccc(O)cc2)coc2cc(O[C@@H]3O[C@H](CO)[C@@H](O)[C@H](O)[C@H]3O)ccc12 [DAIDZIN]
Not Active | Active | COc1ccc(C2=CC(=O)O[C@H]2Cc2ccc(O)cc2)c(O[C@@H]2O[C@H](CO)[C@@H](O)[C@H](O)[C@H]2O)c1
Not Active | – | O=c1c(-c2ccc(O[C@@H]3O[C@H](CO)[C@@H](O)[C@H](O)[C@H]3O)cc2)coc2cc(O)ccc12
Not Active | Active | O=C(O)CC(=O)OC[C@H]1O[C@@H](Oc2ccc3c(=O)c(-c4ccc(O)cc4)coc3c2)[C@H](O)[C@@H](O)[C@@H]1O
